Our source for the inhibition and IC50 values is patent US10519134B2, “Pyrazole compounds and methods of making and using same” (Lundbeck La Jolla Research Center, Inc., priority 2015, dated 2019).

A word on the IC50: it is the concentration that gives 50% inhibition. Read a high IC50 as lower potency.

The target of test [1] is T1, MAGL (Mus musculus, UniProt O35678).
T1 construct: Proteomes (mouse brain membrane fraction or cell lysates); from tissue; host or cells: mouse brain membrane fraction (or cell lysates)
T1 sequence (O35678 1-303): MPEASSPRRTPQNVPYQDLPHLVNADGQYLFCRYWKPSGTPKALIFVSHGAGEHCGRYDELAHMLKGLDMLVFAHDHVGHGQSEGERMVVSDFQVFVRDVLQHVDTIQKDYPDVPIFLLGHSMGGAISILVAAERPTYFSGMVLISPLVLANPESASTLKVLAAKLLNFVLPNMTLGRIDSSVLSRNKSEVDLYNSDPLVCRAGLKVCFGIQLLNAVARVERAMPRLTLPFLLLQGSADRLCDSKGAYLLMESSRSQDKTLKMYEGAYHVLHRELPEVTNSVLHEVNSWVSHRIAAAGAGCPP
Put plainly: In vitro competitive activity-based protein profiling (mouse), MAGL gel band. To be noted: for inhibition at 1 µM: read-out: MAGL % inh. 1 μM; for IC50: mouse. The test is classed as biochemical. A digest of the protocol: (§1)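 Mouse brain membrane proteome or cell lysate (1.0 mg/mL protein) preincubated 30 min at 37 °C with varying inhibitor concentrations, then labelled 30 min at 37 °C with FP-Rh or HT-01 probe (50 μM stock). After SDS-PAGE, activity taken from fluorescent intensity of the MAGL and FAAH gel bands.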

Test [2] deals with T2, MAGL (Homo sapiens, UniProt Q99685).
T2 construct: Proteomes (human prefrontal cortex or cell membrane fractions); from tissue; host or cells: human prefrontal cortex (or cell membrane fractions)
T2 sequence (Q99685 1-303): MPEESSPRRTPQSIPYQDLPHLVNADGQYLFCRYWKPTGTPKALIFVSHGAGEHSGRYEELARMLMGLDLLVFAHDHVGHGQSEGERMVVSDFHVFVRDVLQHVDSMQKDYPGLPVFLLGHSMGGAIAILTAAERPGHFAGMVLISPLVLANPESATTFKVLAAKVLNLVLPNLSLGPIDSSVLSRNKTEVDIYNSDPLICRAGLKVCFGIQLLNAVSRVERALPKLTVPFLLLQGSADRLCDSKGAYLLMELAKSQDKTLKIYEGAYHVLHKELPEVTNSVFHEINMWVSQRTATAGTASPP
Put plainly: In vitro competitive activity-based protein profiling (human), MAGL gel band. It counts as biochemical. As for the experimental part:
In Vitro Competitive Activity-Based Protein Profiling (Human).
Proteomes (human prefrontal cortex or cell membrane fractions) (50 μL, 1.0-2.0 mg/mL total protein concentration) were preincubated with varying concentrations of inhibitors at 37° C. After 30 min, FP-Rh or JW912 (1.0 μL, 50 μM in DMSO) was added and the mixture was incubated for another 30 min at room temperature. Reactions were quenched with SDS loading buffer (15 μL—4×) and run on SDS-PAGE. Following gel imaging, serine hydrolase activity was determined by measuring fluorescent intensity of gel bands corresponding to MAGL using ImageJ 1.49k software.

A further test deals with T3, FAAH (Mus musculus, UniProt O08914).
T3 construct: Proteomes (mouse brain membrane fraction or cell lysates); from tissue; host or cells: mouse brain membrane fraction (or cell lysates)
T3 sequence (O08914 1-579): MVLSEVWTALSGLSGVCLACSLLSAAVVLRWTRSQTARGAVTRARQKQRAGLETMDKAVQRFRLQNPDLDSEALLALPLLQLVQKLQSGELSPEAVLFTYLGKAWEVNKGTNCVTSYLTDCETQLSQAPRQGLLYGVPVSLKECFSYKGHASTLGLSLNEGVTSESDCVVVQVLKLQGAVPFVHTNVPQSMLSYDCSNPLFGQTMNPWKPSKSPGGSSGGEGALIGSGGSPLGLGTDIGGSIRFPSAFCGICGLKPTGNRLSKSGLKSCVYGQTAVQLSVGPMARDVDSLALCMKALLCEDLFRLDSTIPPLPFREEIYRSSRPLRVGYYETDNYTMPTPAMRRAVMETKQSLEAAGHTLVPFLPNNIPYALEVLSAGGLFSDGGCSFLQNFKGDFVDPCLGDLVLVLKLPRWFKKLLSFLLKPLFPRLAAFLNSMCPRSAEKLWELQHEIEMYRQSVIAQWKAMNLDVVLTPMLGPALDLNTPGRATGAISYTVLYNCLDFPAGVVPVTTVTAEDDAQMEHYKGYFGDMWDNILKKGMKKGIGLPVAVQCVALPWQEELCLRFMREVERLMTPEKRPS
Put plainly: In vitro competitive activity-based protein profiling (mouse), FAAH gel band. It counts as biochemical. To be noted: for inhibition at 1 µM: read-out: FAAH % inh. 1 μM; for IC50: mouse. A digest of the protocol: as §1

Test [3] deals with T1, MAGL. In words: Mouse brain proteomes from inhibitor treated mice (oral gavage, sacrificed 4 h after administration). To be noted: read-out: MAGL % inh. 5 mg/kg. The test is classed as in vivo. A digest of the protocol: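 Brains were collected 4 h after oral gavage dosing of wild-type C57Bl/6J mice, vehicle polyethylene glycol. Proteomes from these brains were then analyzed for MAGL and other serine hydrolase activity.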

A value given as a limit tells only on which side of the number the result lay.

In the case of `CS(=O)(=O)Nc1ccn(C(=O)N2CCN(Cc3ccc(C(F)(F)F)cc3-c3ncon3)CC2)n1` [Example 112, N-(1-(4-(2-(1,2,4-oxadiazol-3-yl)-4-(trifluoromethyl)benzyl)piperazine-1-carbonyl)-1H-pyrazol-3-yl)methanesulfonamide], the inhibition at 1 µM on MAGL [1] is at least 75%; on FAAH, 0 to 25%. On MAGL [2], this compound showed an IC50 of at most 100 nM.
In the same order, the values of `CS(=O)(=O)Nc1ccn(C(=O)N2CCN(Cc3ccc(C(F)(F)F)cc3-c3nnco3)CC2)n1` [Example 113, N-(1-(4-(2-(1,3,4-oxadiazol-2-yl)-4-(trifluoromethyl)benzyl)piperazine-1-carbonyl)-1H-pyrazol-3-yl)methanesulfonamide] are at least 75%, 0 to 25% and 100 to 1000 nM.
`CS(=O)(=O)Nc1ccn(C(=O)N2CCN(Cc3ccc(C(F)(F)F)cc3N3CCN(C(=O)CO)CC3)CC2)n1` [Example 116, N-(1-(4-(2-(4-(2-hydroxyacetyl)piperazin-1-yl)-4-(trifluoromethyl)benzyl)piperazine-1-carbonyl)-1H-pyrazol-3-yl)methanesulfonamide]: the inhibition at 1 µM was at least 75% on MAGL [1] and 0 to 25% on FAAH. This compound showed an IC50 at MAGL [2] of at most 100 nM.
For the compound `CS(=O)(=O)Nc1ccn(C(=O)N2CCN(Cc3ccc(C(F)(F)F)cc3C3CCN(CC(=O)O)CC3)CC2)n1` [Example 118, 2-(4-(2-((4-(3-(methylsulfonamido)-1H-pyrazole-1-carbonyl)piperazin-1-yl)methyl)-5-(trifluoromethyl)phenyl)piperidin-1-yl)acetic Acid], the inhibition at 1 µM is 0 to 25% at MAGL [1]; 25% at MAGL [2] (at 1 μM, read-out: MAGL human % inh at 1 μM); 0 to 25% on FAAH.
`CS(=O)(=O)Nc1ccn(C(=O)N2CCN(Cc3cccc(-c4cccnc4)c3)CC2)n1` [Example 120, N-(1-(4-(3-(pyridin-3-yl)benzyl)piperazine-1-carbonyl)-1H-pyrazol-3-yl) methanesulfonamide]: the IC50 was 100 to 1000 nM on MAGL [1], at most 100 nM on MAGL [2] and 1 to 10 µM on FAAH. Also, the figures for the inhibition at 1 µM on MAGL [1] and on FAAH were at least 75% and 0 to 25%, respectively.
Turning to `CS(=O)(=O)Nc1ccn(C(=O)N2CCN(Cc3ccc(Cl)cc3N3CCCC3)CC2)n1` [Example 127, N-(1-(4-(4-chloro-2-(pyrrolidin-1-yl)benzyl)piperazine-1-carbonyl)-1H-pyrazol-3-yl) methanesulfonamide], on MAGL [1], the IC50 is at most 100 nM and the inhibition at 1 µM is at least 75%. Also, the inhibition at 5 mg/kg on MAGL [3] was at least 75%. Moreover, on FAAH, the IC50 was 1 to 10 µM and the inhibition at 1 µM fell in the range of 0 to 25%.
Turning to `CS(=O)(=O)Nc1ccn(C(=O)N2CCN(Cc3ccc(C(F)(F)F)cc3N3CC4CCC(C3)O4)CC2)n1` [Example 130, N-(1-(4-(2-(8-oxa-3-azabicyclo[3.2.1]octan-3-yl)-4-(trifluoromethyl)benzyl)piperazine-1-carbonyl)-1H-pyrazol-3-yl) methanesulfonamide], the IC50 was at most 100 nM at MAGL [1] and 1 to 10 µM at FAAH. Also, the figures for the inhibition at 1 µM at MAGL [1] and on FAAH were at least 75% and 0 to 25%, respectively. Also, at MAGL [3], the inhibition at 5 mg/kg fell in the range of 50 to 75%.
As to `Cc1c(CN2CCCC23CCN(C(=O)n2ccc(NS(C)(=O)=O)n2)CC3)cccc1N1CCCCC1` [Example 142, N-(1-(1-(2-methyl-3-(piperidin-1-yl)benzyl)-1,8-diazaspiro[4.5]decane-8-carbonyl)-1H-pyrazol-3-yl) methanesulfonamide], the 50% inhibitory concentration (IC50) is at most 100 nM at MAGL [1] and 1 to 10 µM on FAAH. The results for the inhibition at 1 µM on MAGL [1] and on FAAH were at least 75% and 0 to 25%, respectively. For the same compound, at MAGL [3], the inhibition at 5 mg/kg fell in the range of 0 to 25%.
Turning to `Cc1ccc(CN2CCN(C(=O)n3ccc(NS(C)(=O)=O)n3)CC2)c(N2CC3CCC(C2)O3)c1` [Example 146, N-(1-(4-(2-(8-oxa-3-azabicyclo[3.2.1]octan-3-yl)-4-methylbenzyl)piperazine-1-carbonyl)-1H-pyrazol-3-yl) methanesulfonamide], at MAGL [1], the IC50 is at most 100 nM and the inhibition at 1 µM was at least 75%. Besides, the inhibition at 5 mg/kg on MAGL [3] was in the range of 25 to 50%. At FAAH, the IC50 lay in the range of 1 to 10 µM and the inhibition at 1 µM was 0 to 25%.
Take `CS(=O)(=O)Nc1ccn(C(=O)N2CCC3(CCCN3Cc3ccc(C(F)(F)F)c(Cl)c3)CC2)n1` [Example 161, N-(1-(1-(3-chloro-4-(trifluoromethyl)benzyl)-1,8-diazaspiro[4.5]decane-8-carbonyl)-1H-pyrazol-3-yl) methanesulfonamide]: the inhibition at 1 µM is at least 75% on MAGL [1] and 0 to 25% on FAAH. Moreover, on MAGL [3], the inhibition at 5 mg/kg is 0 to 25%.
On to `CC(=O)Nc1ccn(C(=O)N2CCN(Cc3cccc(C(F)(F)F)c3-c3nnn[nH]3)CC2)n1` [Example 223, N-(1-(4-(2-(1H-tetrazol-5-yl)-3-(trifluoromethyl)benzyl)piperazine-1-carbonyl)-1H-pyrazol-3-yl)acetamide], for which, at MAGL [1], the IC50 lay within 1000 to 10000 nM and the inhibition at 1 µM is at least 75%. Further, the inhibition at 5 mg/kg on MAGL [3] lay in the range of 0 to 25%. Also, on FAAH, the IC50 was in the range of 1 to 10 µM and the inhibition at 1 µM fell in the range of 0 to 25%.
In the case of `CC(=O)Nc1ccn(C(=O)N2CCN(Cc3ccc(Cl)cc3N3CCC(C(=O)O)CC3)CC2)n1` [Example 248, 1-(2-((4-(3-acetamido-1H-pyrazole-1-carbonyl)piperazin-1-yl)methyl)-5-chlorophenyl) piperidine-4-carboxylic acid], at MAGL [1], the IC50 is at most 100 nM and the inhibition at 1 µM was at least 75%. For the same compound, the inhibition at 5 mg/kg on MAGL [3] is 0 to 25%. Besides, at FAAH, the IC50 was in the range of 1 to 10 µM and the inhibition at 1 µM lay within 0 to 25%.
As to `CC(=O)Nc1ccn(C(=O)N2CCN(Cc3ccc(Cl)cc3-c3nnn[nH]3)CC2)n1` [Example 262, N-(1-(4-(4-chloro-2-(1H-tetrazol-5-yl)benzyl)piperazine-1-carbonyl)-1H-pyrazol-3-yl)acetamide], at MAGL [1], the IC50 was at most 100 nM and the inhibition at 1 µM was at least 75%. Also, the inhibition at 5 mg/kg on MAGL [3] fell in the range of 0 to 25%. At FAAH, the IC50 lay within 1 to 10 µM and the inhibition at 1 µM was 0 to 25%.
For the compound `[2H]C([2H])([2H])C(=O)Nc1ccn(C(=O)N2CCC3(CCCN3Cc3ccc(Cl)c(C)c3)CC2)n1` [Example 286, N-(1-(1-(4-chloro-3-methylbenzyl)-1,8-diazaspiro[4.5]decane-8-carbonyl)-1H-pyrazol-3-yl)acetamide-2,2,2-d3], the inhibition at 1 µM on MAGL [1] was at least 75%; on FAAH, 0 to 25%. Moreover, on MAGL [3], the inhibition at 5 mg/kg is at least 75%.
With `CS(=O)(=O)Nc1ccn(C(=O)N2CCN(Cc3cccc(Cl)c3N3CCC4(CCOCC4)C3)CC2)n1` [Example 290, N-(1-(4-(3-chloro-2-(8-oxa-2-azaspiro[4.5]decan-2-yl)benzyl)piperazine-1-carbonyl)-1H-pyrazol-3-yl) methanesulfonamide], on MAGL [1], the IC50 is at most 100 nM and the inhibition at 1 µM was at least 75%. In addition, the inhibition at 5 mg/kg at MAGL [3] was 50 to 75%. Further, on FAAH, the IC50 fell in the range of 1 to 10 µM and the inhibition at 1 µM is 0 to 25%.
